Measured values as given in patent EP1263429B1, “ANTIVIRAL THERAPY” (Universiteit Utrecht, priority 2000, dated 2001).

Test system: Monocyte-derived macrophages (MDM)
Type: cell-based, human
Protocol: Cell viability is assessed by the MTT assay. In short, cells are incubated with MTT 3-(4,5-dimethylthiazol-2-yl)-2,5-diphenyltetrazollumbromide (Sigma) for 2 hours at 37 °C. During this time viable cells convert MTT into […] formazan dyes. Afterwards crystals are solubilised with a solution containing isopropanol. The OD of the supernatant is measured at 550 nm.
Monocyte-derived macrophages (MDM) were obtained like described above. MDM were then washed twice and cultured for 4 to 7 days in different concentrations of APHS. After a 4 days incubation period cellular viability was assessed by MTT cytotoxicity assay where viable cells convert MTT into a colored formazan dye that can be measured spectrophotometrically.
• Fig. 1 - Plasmids that are used for studies on the effect of compounds on HIV promotor activity. • Fig. 2 - Peripheral blood mononuclear cells (PBMC) were isolated from heparinized blood from HIV-1-, HIV-2-, and hepatitis B-seronegative donors and obtained on Ficoll-Hypaque density gradients. PBMC were washed twice and monocytes were purified by countercurrent centrifugal elutriation. […] After 4 and 5 days of incubation samples of culture supernatant were collected and p24-core antigen production was quantified using the enzyme-linked immunosorbent assay (ELISA) system of John Moore. […]

Question: Which “cytotoxicity (cellular viability, MTT)” value does the source give for `CCCCC#CCSc1ccccc1OC(C)=O` [APHS, o-(acetoxy-phenyl)hept-2-ynyl sulphide] here?
Answer: The value was “None of the tested concentrations of APHS was found to be cytotoxic”.
